The values that follow come from PMC12596928 (Chembiochem, 2025).

pIC50: −log10 of the molar value. Several values for one entry are separate records, joined by “and”; a condition that tells them apart may be missing. Equal entries are not always repeated. Structures can show the parent of a compound that is named as a salt. Where two headings read alike, the source gives them in different places.

Experiment [1] deals with T1, SdeA (Legionella pneumophila subsp. pneumophila, UniProt Q5ZTK4). Type of experiment: biochemical.
T1 sequence (Q5ZTK4 231-1190 limits assumed): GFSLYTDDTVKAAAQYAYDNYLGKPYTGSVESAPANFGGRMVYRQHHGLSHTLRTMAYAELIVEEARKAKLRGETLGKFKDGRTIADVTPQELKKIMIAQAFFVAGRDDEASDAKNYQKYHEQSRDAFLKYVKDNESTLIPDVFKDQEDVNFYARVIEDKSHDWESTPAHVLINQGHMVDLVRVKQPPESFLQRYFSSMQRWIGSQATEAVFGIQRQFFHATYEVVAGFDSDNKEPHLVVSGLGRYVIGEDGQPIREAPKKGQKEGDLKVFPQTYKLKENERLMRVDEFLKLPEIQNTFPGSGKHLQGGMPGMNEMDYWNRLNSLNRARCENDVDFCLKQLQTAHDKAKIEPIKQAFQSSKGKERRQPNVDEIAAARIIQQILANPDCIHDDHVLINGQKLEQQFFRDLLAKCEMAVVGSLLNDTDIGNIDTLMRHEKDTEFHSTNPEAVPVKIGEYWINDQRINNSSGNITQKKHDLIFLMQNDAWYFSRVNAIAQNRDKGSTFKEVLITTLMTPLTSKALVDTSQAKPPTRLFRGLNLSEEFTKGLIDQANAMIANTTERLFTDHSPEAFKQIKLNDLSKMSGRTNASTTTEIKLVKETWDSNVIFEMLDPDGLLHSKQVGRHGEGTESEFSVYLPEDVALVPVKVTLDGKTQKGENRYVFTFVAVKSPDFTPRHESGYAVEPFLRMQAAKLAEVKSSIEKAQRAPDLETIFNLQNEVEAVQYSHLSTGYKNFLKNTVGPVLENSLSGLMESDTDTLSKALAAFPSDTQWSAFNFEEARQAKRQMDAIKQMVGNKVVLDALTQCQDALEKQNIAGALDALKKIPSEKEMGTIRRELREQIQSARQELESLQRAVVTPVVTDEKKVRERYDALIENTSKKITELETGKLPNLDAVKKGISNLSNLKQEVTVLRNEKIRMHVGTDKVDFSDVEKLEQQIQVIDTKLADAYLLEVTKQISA
Experiment [2] has as its target T1, SdeA. Kind of experiment: biochemical.
Experiment [3] deals with T1, SdeA. In words: biochemical. The source holds these as a separate data set.

As to `CCCCCCCC(=O)ON1C(=O)CCC1=O` [N‐succinimidyl octanoate], at SdeA [1], the “inhibition of SdeA” value was “full inhibition”.

What is called inhibition is how much of the control response was suppressed. A higher inhibition goes with strong suppression. Molecule `O=c1c(O)c(-c2ccc(O)c(O)c2)oc2cc(O)cc(O)c12` [Quercetin dihydrate] returned an inhibition at 5 µM against SdeA [2] of 52.2%.

Molecule `O=c1cc2c(=O)oc3cc(O)c(O)oc3c2c(O)c1O` [Galloflavin potassium salt] had an inhibition at 5 µM against SdeA [2] of 92.4%.

At SdeA [2], `O=c1cc(-c2ccccc2)oc2c(O)c(O)ccc12` [Dihydroxyflavone] displayed an inhibition at 5 µM of 96.5%.

Usually pIC50 stands for −log10 of the IC50, conventionally taken in molar units. With `O=[N+]([O-])[O-].O=[N+]([O-])[O-].[Pb+2]` [Pb(NO3)2], on SdeA [3] (read-out: IC50), the negative-log IC50 (pIC50) is 4.36.

Turning to `NC(=O)c1cccc(N)c1` [3‐AB, 3‐aminobenzamide], the “behaviour as potential positive control” value at SdeA [1] was “auto‐fluorescent”.

`O=C(O)C1=CC(=C(c2ccc(O)c(C(=O)O)c2)c2ccc(O)c(C(=O)O)c2)C=CC1=O` [Aurintricarboxylic acid] returned an inhibition at 5 µM at SdeA [2] of 96.3%.

Consider `[Cl][Mn][Cl]` [MnCl2], for which the “IC50 (μM)” value on SdeA [3] was “do not show any inhibitory effect and n.i”.

`[Cl][Cu][Cl]` [CuCl2]: the pIC50 at SdeA [3] (read-out: IC50) is 4.91.

For orientation: Inhibition means the share of the control response that was lost under treatment. A higher Inhibition goes with a strong effect. With `CC(=O)OCC1=C(C(=O)O)N2C(=O)[C@@H](NC(=O)CCC[C@@H](N)C(=O)O)[C@H]2SC1` [Cephalosporin C zinc salt, cephalosporin C Zn^2+ salt], the negative-log IC50 (pIC50) against SdeA [3] (IC50) is 6.66 and 6.70. At SdeA [2], this molecule gave an Inhibition of 75% and an inhibition at 5 µM of 74.6%.

For the molecule `N#CC(C#N)=C(N)/C(C#N)=C/c1cc(O)c(O)c(O)c1` [Tyrphostin A51], the inhibition at 5 µM on SdeA [2] came to 98.2%.

With `[Cl][Ni][Cl]` [NiCl2], the negative-log IC50 (pIC50) at SdeA [3] (read-out: IC50) was 4.17.

Take `[Cl-].[Cl-].[Zn+2]` [ZnCl2]: at SdeA [3], the “fold difference in IC50 between zinc and copper” value stood at 40 fold. The pIC50 at SdeA [3] (read-out: IC50) is 6.34 and 6.52.

For `O=[N+]([O-])[O-].O=[N+]([O-])[O-].[Cd+2]` [Cd(NO3)2], the pIC50 at SdeA [3] (read-out: IC50) was 4.53.

For the molecule `[Cl-].[Cl-].[Mg+2]` [MgCl2], at SdeA [3], the “IC50 (μM)” value is “do not show any inhibitory effect and n.i”.
